Measurements reported in patent US12662518B2, “Engineered peptide and peptide mimetic compositions and methods” (The Wistar Institute of Anatomy and Biology, priority 2019, dated 2026).
Peptide text beside a SMILES is read from it.

Assays:
[1] = test system: PC3 cells; assay: cytochrome c release from tumor cells, Western blotting; format: cell-based, human; settings: supernatants vs mitochondrial extracts
[2] = test system: isolated tumor (PC3) mitochondria; assay: high-throughput assay for depolarization of isolated tumor (PC3) mitochondria, TMRE staining; format: biochemical, human; settings: MFF peptides 20 μM
Procedure: Analysis of mitochondrial membrane potential. […] In some experiments, PC3 cells were treated with cell-permeable scrambled peptide or cell-permeable MFF #8-11 peptide, washed three times in PBS, pH 7.4, and analyzed on a FACSCalibur flow cytometer, with the TMRE signal as FL1. Intact cells were gated in the FSC/SSC plot to exclude small debris. Cells treated with 20 μM FCCP 10 min prior to TMRE staining were used as a negative control. The resulting FL1 data were plotted on a histogram. For quantification of membrane potential of purified mitochondria, mitochondria isolated from PC3 cells (50 μg) were suspended in 400 μl of SB buffer (0.2 M sucrose, 10 mM Tris-MOPS, pH 7.4, 5 mM succinate, 1 mM sodium phosphate, 10 μM EGTA-Tris, 2 μM rotenone). […] After two washes with SB buffer, mitochondria were recovered by centrifugation at 6000×g for 10 min, suspended in 100 μl of SB buffer and mitochondrial membrane potential was quantified on a florescence microplate reader (Ex/Em=535/595 nm, Beckman Coulter). Samples treated with 2 mM CaCl2 were used as control for the lowest membrane potential (fully depolarized state).

[3] = target: T1, human recombinant VDAC (Homo sapiens, UniProt P21796); assay: isothermal titration calorimetry (ITC); format: binding; settings: 20° C.
T1 construct: The cleaved, full length hVDAC1 was collected from the HS-HQ flow through; hexahistidine-SUMO (N, cleaved yes); made in house; host or cells: E. coli ScarabXpress T7 lac
T1 sequence (P21796 whole entry): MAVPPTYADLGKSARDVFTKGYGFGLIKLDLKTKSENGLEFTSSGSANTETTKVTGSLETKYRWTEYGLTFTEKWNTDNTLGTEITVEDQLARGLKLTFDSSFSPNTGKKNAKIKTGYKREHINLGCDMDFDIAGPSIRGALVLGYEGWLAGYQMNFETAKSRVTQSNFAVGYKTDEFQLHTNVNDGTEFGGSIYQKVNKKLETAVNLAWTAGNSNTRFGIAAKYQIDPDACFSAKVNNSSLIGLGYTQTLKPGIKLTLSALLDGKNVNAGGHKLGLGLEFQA
Procedure: Expression and purification of human VDAC1. A full length human VDAC1 cDNA (hVDAC1) was cloned into pET28b vector containing an N-terminal hexahistidine-SUMO fusion tag, with a flexible linker cleavable by tobacco etch virus (TEV) protease. The hVDAC1 was expressed in E. coli ScarabXpress T7 lac competent cells (Scarab genomics) for 16 h at 16° C. using 1 mM IPTG (Denville Scientific Inc.). The cells were harvested by centrifugation and lysed on ice via sonication in buffer containing 25 mM Tris-HCl (pH 7.5), 1 M Urea, 1 M KCl, 5% glycerol, 1 mM Benzamidine and 1 mM PMSF (Ni Buffer A). The lysate was centrifuged at 18,000 rpm for 20 min at 4° C. The cell pellet was first washed extensively in Ni Buffer A with 1% Triton X-100 and then solubilized in buffer containing 20 mM Tris-HCl (pH 7.9), 500 mM NaCl, 4 M guanidine-HCl and 10% glycerol for 45 min with gentle stirring. The supernatant was collected following centrifugation at 20,000 rpm for 10 min at 4° C. The protein was then purified over nickel-nitrilotriacetic acid (Ni-NTA—Qiagen) column and buffer-exchanged to 25 mM Tris-HCl (pH 7.5), 500 mM KCl, 5% glycerol, 1 mM benzamidine and 1 mM PMSF (Ni buffer C) with 2% n-Octylglucoside (Research Products International). The protein was then eluted with 300 mM imidazole and treated overnight with TEV at 4° C. to cleave the His-SUMO tag. […]

[4] = test system: NSCLC A549 and H460 or breast adenocarcinoma MDA-231 and MCF-7 cells; assay: NSCLC and breast adenocarcinoma cell lines, TMRE flow cytometry and CellTox cell death; format: cell-based, human; settings: A549, H460, MDA-231, MCF-7 cells, 10-25 μM, TMRE
[5] = test system: prostate cancer cell types (LNCaP, C4-2B, PC3, DU145); assay: cell death of prostate cancer cells, CellTox reactivity; format: cell-based, human; settings: PC3 / prostate cancer cells, 0-50 μM
Procedure: Cell death and apoptosis. […] The various cell-permeable MFF peptides were examined for induction of cytotoxicity using a CellTOX Green cytotoxicity assay kit (Promega). Briefly, 10^4 normal or tumor cells in 100 μl complete medium were plated on white opaque 96-well plate. […] Lysis Solution in the assay kit was used as cytotoxicity control (100% cell death) and treatment with PBS was used as a control for 100% cell viability.

[6] = test system: DU145 or PC3 cells; assay: release of HMGB1 and cyclophilin A from tumor cells, Western blotting; format: cell-based, human; settings: marker of necrosis
[7] = test system: mitochondria of normal BPH-1 cells; assay: depolarization of isolated mitochondria of normal BPH-1 cells, TMRE staining; format: biochemical, human; settings: peptide #8 10-30 μM
[8] = target: T2, MFF-PTP complex (MFF and VDAC or HK-I) (Homo sapiens, UniProt P21796); assay: competition of MFF-PTP complex in isolated cell extracts, Flag-MFF1 immunoprecipitation and Western blotting; format: biochemical; settings: added to isolated cell extracts
T2 construct: VDAC and HK-I are endogenous
T2 sequence (P21796 2-283 limits assumed, one chain of several): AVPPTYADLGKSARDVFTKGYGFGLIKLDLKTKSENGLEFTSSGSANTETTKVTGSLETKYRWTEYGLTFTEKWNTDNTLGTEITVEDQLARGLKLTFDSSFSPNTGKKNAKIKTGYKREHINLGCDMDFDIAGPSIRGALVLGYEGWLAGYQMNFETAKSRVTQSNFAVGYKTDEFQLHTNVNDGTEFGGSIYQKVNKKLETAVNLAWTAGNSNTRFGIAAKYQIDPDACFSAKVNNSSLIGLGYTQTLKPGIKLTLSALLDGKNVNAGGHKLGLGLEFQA
Procedure: Immunoprecipitation (IP). Cells were harvested and lysed with IP buffer (50 mM Tris-HCl, pH 7.5, 150 mM NaCl, 1 mM EDTA) containing 1% CHAPS, EDTA-free Protease Inhibitor Cocktail (Sigma-Aldrich) and Phosphatase Inhibitor Cocktail PhosSTOP (Roche). After sonication, lysates were centrifuged at 15,000×g for 30 min, and cell extracts were incubated with anti-Flag-conjugated beads (Sigma-Aldrich). The precipitates were washed five times, separated by SDS-polyacrylamide gel electrophoresis and processed for Western blotting together with samples representing unbound material and supernatant.
Immunoprecipitation. Cells were harvested and lysed with PLD assay buffer (50 mM HEPES-NaOH, pH 7.3, 3 mM EGTA, 3 mM CaCl2, 3 mM MgCl2, 80 mM KCl) containing 1% CHAPS, EDTA-free Protease Inhibitor Cocktail (Sigma-Aldrich) and Phosphatase Inhibitor Cocktail PhosSTOP (Roche). After sonication, lysates were centrifuged at 15,000×g for 30 min, and cell extracts were incubated with anti-Flag-conjugated beads (Sigma-Aldrich). The precipitates were washed five times, separated by sodium dodecyl sulfate-polyacrylamide gel electrophoresis (SDS-PAGE) and processed for Western blotting.

In the case of “AEMAEISRIQYEMEYTEGISQRMRVP (MFF-Derived; Peptide #1) [MFF #1]”, the “cytochrome c release from tumor cells” value [1] is reported as “had no effect”.
In the case of “SARGILSLIQSSTRRAYQQILDVL (MFF Deletion; Peptide 8 #2) [peptide #8 variant #2]”, the “depolarization of isolated tumor (PC3) mitochondria” value (“depolarization of isolated tumor” below) [2] is reported as “depolarized isolated tumor mitochondria”.
With “SSQLRYLARSQRITIQLIAGS (MFF Scramble; Peptide 8 #11) [scrambled sequence]” the “binding to human recombinant VDAC by ITC” value [3] was “ineffective” and the mitochondrial membrane potential [4] was “not”.
For “DGANLSSARGILSLIQSSTRRAYQQIL (MFF Deletion; Peptide 8 #6) [peptide #8 variant #6]”, the “depolarization of isolated tumor” value [2] was “depolarized isolated tumor mitochondria”.
“MFF peptide #8-11 containing the double mutation R225D/R236D (DD): cell-permeable MFF peptide #8-11 mutant containing the double mutation R225D/R236D (DD) (RQIKIWFQNRRMKSADGILSLIQSSTDRAYQQIL)” was tested, and the “tumor cell death / viability” value [5] was “did not affect tumor cell viability”, the “tumor cell death / viability” value ([5]; listed as DD) was “entirely lost the ability to induce tumor (PC3) cell death” and the “HMGB1 release from tumor cells” value [6] was “had no effect on HMGB1 release”. For the same compound, the “HMGB1 release from tumor cells” value ([6]; listed as MFF-DD mutant peptide #8-11) was “did not induce HMGB1 release”.
With “NLSSARGILSLIQSSTRRAYQQILDVL (MFF Deletion; Peptide 8 #1) [peptide #8 variant #1]” the “depolarization of isolated tumor” value [2] was “depolarized isolated tumor mitochondria”.
`CC[C@H](C)[C@H](NC(=O)CNC(=O)[C@H](CCCNC(=N)N)NC(=O)[C@H](C)NC(=O)[C@@H](N)CO)C(=O)N[C@@H](CC(C)C)C(=O)N[C@@H](CO)C(=O)N[C@@H](CC(C)C)C(=O)N[C@H](C(=O)N[C@@H](CCC(N)=O)C(=O)N[C@@H](CO)C(=O)N[C@@H](CO)C(=O)N[C@H](C(=O)N[C@@H](CCCNC(=N)N)C(=O)N[C@@H](CCCNC(=N)N)C(=O)N[C@@H](C)C(=O)N[C@@H](Cc1ccc(O)cc1)C(=O)N[C@@H](CCC(N)=O)C(=O)N[C@@H](CCC(N)=O)C(=O)N[C@H](C(=O)N[C@@H](CC(C)C)C(=O)O)[C@@H](C)CC)[C@@H](C)O)[C@@H](C)CC` [MFF peptide #8-11] (H-SARGILSLIQSSTRRAYQQIL-OH) showed a Kd [3] of about 12 µM.
In the case of “DGANLSSARGILSLIQSSTRRAYQQILDVL (MFF-Derived; Peptide #8) [MFF peptide #8]”, the “depolarization of isolated tumor” value [2] is reported as “depolarized tumor mitochondria”, the “depolarization of mitochondria of normal BPH-1 cells” value [7] is reported as “did not depolarize” and the “disruption of the interaction between MFF and VDAC or HK-I” value [8] is reported as “disrupting the interaction between MFF and VDAC or HK-I”.
